Data set [1] deals with MERS-CoV (strain EMC/2012). In words: microbe, parasite or virus in culture. The format is cell-based. Conditions: for EC50: Middle East respiratory syndrome-related coronavirus, Huh-7, read-out: EC50: Effective concentration showing 50% inhibition of virus-induced CPE.
Data set [2] deals with MERS-CoV (strain EMC/2012). In words: microbe, parasite or virus in culture. Particulars: Middle East respiratory syndrome-related coronavirus, Vero, read-out: EC50: Effective concentration showing 50% inhibition of virus-induced CPE. The format is cell-based.
The next data set can be described thus: in vitro. Particulars: human.
A short description of data set [3]: Cytotoxicity in Vero118 cells (NL63 assay, cell viability scored microscopically). Particulars: African green monkey, Vero118 cells, CC50: Cytotoxic concentration showing 50% inhibition of cell survival, Vero118 (HCoV-NL63 assay).
For a further data set, the system named is Vero118 cells. The description is as above. Particulars: read-out: CC50: Cytotoxic concentration showing 50% inhibition of cell survival; Vero118 (HCoV-NL63 assay).
The test system of a further data set is HCoV-NL63. The experiment in a line: NL63-CoV antiviral assay (CPE scored microscopically).
In data set [4] the test system is SARS-CoV (strain Frankfurt-1). The experiment in a line: microbe, parasite or virus in culture. Conditions: Severe acute respiratory syndrome coronavirus.
Another data set relates to SARS-CoV or MERS-CoV. Conditions: cited from earlier work.
The subject of data set [5] is SARS-CoV (strain Frankfurt-1).
For a further data set, the system named is coronavirus. Conditions: coronavirus replication in vitro; cited from earlier work.
The subject of the next data set is other viruses. Particulars: cited from earlier work.
The next data set concerns Huh7 cells. Particulars: human.
The subject of the next data set is HIV-1 and HSV-2. Particulars: when McGuigan's ProTide technology was employed, cited from earlier work.
The next data set deals with VeroE6 cells. Particulars: African green monkey.
For another data set, the system named is Vero cells. Particulars: African green monkey.
The mark [6] stands for this setting: Human coronavirus NL63, read-out: EC50: Effective concentration showing 50% inhibition of virus-induced CPE, HCoV-NL63 in Vero118.
The mark [7] stands for this setting: Vero C1008, read-out: EC50: Effective concentration showing 50% inhibition of virus-induced CPE.

Where two headings read alike, the source gives them in different places.

With `COc1nc(N)ncc1-c1cn(COCCO)cn1` [Compound 2, 2-((4-(2-amino-4-methoxypyrimidin-5-yl)-1H-imidazol-1-yl)methoxy)ethan-1-ol], in data set [1], the “block the replication of MERS-CoV” value is recorded as “can block the replication of MERS-CoV”. Also, the EC50 in data set [1] is 13.5 µM; in data set [2] it was 10.1 ± 1.2 µM; with HCoV-NL63 (setting [6]), below 10 µM; with HCoV-NL63 (read-out: EC50: Effective concentration showing 50% inhibition of virus-induced CPE, HCoV-NL63 in Vero118) it was 8.8 ± 1.5 µM; in data set [4] (setting [7]) it was 28.1 ± 0.2 µM. The CC50 in the data set “in vitro” amounted to 54 ± 1.7 µM; in the data set with Vero118 cells, 120 ± 37 µM. The CC50 at 5 days in data set [3] is above 100 µM. Moreover, the “selective antiviral activity (CC50>10×)” value in the data set on HCoV-NL63 (HCoV-NL63 in Vero118, CC50 relative to EC50) is listed as above 10 ×.
Turning to `Nc1ncc(-c2cn(COCCO)cn2)c(O)n1` [Compound 3, 2-amino-5-(1-((2-hydroxyethoxy)methyl)-1H-imidazol-4-yl)pyrimidin-4(3H)-one], in data set [3], the CC50 at 5 days is above 200 µM. Moreover, the EC50 in the data set on HCoV-NL63 (setting [6]) is above 200 µM.
`Cc1cn([C@H]2C[C@H](N=[N+]=[N-])[C@@H](CO)O2)c(=O)[nH]c1=O` [zidovudine]: the “activity against SARS-CoV or MERS-CoV in vitro” value (from here on “activity … in vitro”) with SARS-CoV or MERS-CoV is given as “none of these well-known antiviral drugs exhibited any activity”.
Take `Nc1nc(O)c2ncn(COC(CO)CO)c2n1` [ganciclovir]: in the data set on SARS-CoV or MERS-CoV, the “activity … in vitro” value is “none of these well-known antiviral drugs exhibited any activity”.
Turning to `COc1nc(N)ncc1-c1cn(COCCOC(C)=O)cn1` [Compound 19, 2-((4-(2-amino-4-methoxypyrimidin-5-yl)-1H-imidazol-1-yl)methoxy)ethyl acetate], the “block the replication of MERS-CoV” value in data set [1] was “can block the replication”. For the same compound, the EC50 was 5.3 ± 0.7 µM in data set [1], 3.4 ± 0.3 µM in [2], below 12 µM in data set [4] (Vero C1008) and 11.9 ± 0.2 µM in data set [4] (setting [7]). Moreover, the CC50 in “in vitro” amounted to 23.4 ± 0.4 µM. For the same compound, the “CC50 as multiple of the EC50” value in data set [5] is given as around 3 times the EC50. In addition, the “block the replication of SARS-CoV” value in data set [5] is listed as “can block the replication”.
In the case of `NC(=O)c1ncn([C@@H]2O[C@H](CO)[C@@H](O)[C@H]2O)n1` [Ribavirin, ribavirin], the inhibitory concentration in the data set on coronavirus was 500 to 5000 µg/mL. Besides, in the data set on other viruses, the “inhibitory concentration needed to inhibit other viruses” value was 50 to 100 µg/mL.
With `OCCOCn1cnc(-c2cnc(O)nc2O)c1` [Compound 1, 5-(1-((2-hydroxyethoxy)methyl)-1H-imidazol-4-yl)pyrimidine-2,4-diol], in data set [3], the CC50 at 5 days was above 200 µM. In addition, the EC50 in the data set on HCoV-NL63 (setting [6]) came to 92 ± 68 µM.
As for `Nc1nc2c(ncn2COCCO)c(=O)[nH]1` [Acyclovir, acyclovir, reference compound], the “block the replication of MERS-CoV” value in data set [1] is “had no effect”. In addition, the EC50 is above 1000 µM in data set [1], above 1000 µM in data set [2], above 100 µM with HCoV-NL63 (setting [6]) and above 1000 µM in data set [4] (setting [7]). The CC50 in the data set with Huh7 cells, with VeroE6 cells and in the data set with Vero cells was above 1000 µM throughout. Also, the “suppression of replication of both HIV-1 and HSV-2” value in the data set with HIV-1 and HSV-2 (CD4+ T cells) was 3 to 12 µmol/L; in the data set with HIV-1 and HSV-2 (lymphoid and cervicovaginal human tissues), “submicromolar range”. In data set [3], this compound returned a CC50 at 5 days above 100 µM. Moreover, the “block the replication of SARS-CoV” value in [5] is reported as “had no effect”. Further, in the data set with SARS-CoV or MERS-CoV, the “activity … in vitro” value is “none of these well-known antiviral drugs exhibited any activity”.

The values above are taken from patent US10058516B2, “Design, synthesis and methods of use of acyclic fleximer nucleoside analogues having anti-coronavirus activity” (priority 2015, dated 2018).
